Results published in patent publication US9688710B2, “Inhibitors of sodium glucose cotransporter 1” (LEXICON PHARMACEUTICALS, INC., priority 2012, dated 2017).

How the values were obtained:
[1] = biological target: Human sodium/glucose co-transporter type 1 (SGLT1) (Homo sapiens (Human), UniProt P13866); assay: In vitro human SGLT1 inhibition assay (14C-AMG uptake); type: cell-based; set-up: key to SGLT1 (human SGLT1 IC50): ***: a value less than 0.01 μM; **: a value less than 0.1 μM; *: a value less than 1 μM; —: a value not measured or exceeding μM; settings: HEK293 cells expressing human HA-SGLT1, 14C-AMG uptake
Sequence of Human sodium/glucose co-transporter type 1 (SGLT1) (P13866 whole entry): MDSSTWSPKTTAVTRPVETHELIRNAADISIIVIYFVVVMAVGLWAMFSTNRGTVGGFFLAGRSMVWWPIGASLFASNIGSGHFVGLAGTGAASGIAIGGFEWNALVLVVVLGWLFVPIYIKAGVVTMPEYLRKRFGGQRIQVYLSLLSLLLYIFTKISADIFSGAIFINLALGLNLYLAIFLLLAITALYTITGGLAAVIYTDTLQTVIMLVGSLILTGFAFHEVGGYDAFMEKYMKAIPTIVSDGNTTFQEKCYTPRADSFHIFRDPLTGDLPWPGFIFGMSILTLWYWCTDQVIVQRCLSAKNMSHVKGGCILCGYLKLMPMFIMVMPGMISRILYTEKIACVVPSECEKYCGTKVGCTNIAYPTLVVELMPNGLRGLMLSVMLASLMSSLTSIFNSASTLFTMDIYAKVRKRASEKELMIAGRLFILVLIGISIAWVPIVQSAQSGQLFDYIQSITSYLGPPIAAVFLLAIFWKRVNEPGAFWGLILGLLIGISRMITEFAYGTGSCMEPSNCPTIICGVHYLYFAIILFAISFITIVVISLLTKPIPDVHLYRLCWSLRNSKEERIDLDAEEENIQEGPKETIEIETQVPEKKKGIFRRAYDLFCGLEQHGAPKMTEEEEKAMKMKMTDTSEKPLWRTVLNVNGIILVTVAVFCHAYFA
Method in brief: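 Uptake of 14C-AMG (100 nCi) was measured by scintillation counting after 1–2 h at 37 °C, 5% CO2, with or without compound. The buffer was pH 7.3 with 140 mM NaCl, 1 mM CaCl2, 1 mM MgCl2 and 1 mg/mL BSA. Cells were a stable HEK293 line carrying HA-SGLT1 (human), plated overnight at 30,000 per well.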

[2] = biological target: Human sodium/glucose co-transporter type 2 (SGLT2) (Homo sapiens (Human), UniProt P31639); assay: In vitro human SGLT2 inhibition assay (14C-AMG uptake); type: cell-based; settings: HEK293 cells expressing human HA-SGLT2, 14C-AMG uptake
Sequence of Human sodium/glucose co-transporter type 2 (SGLT2) (P31639 whole entry): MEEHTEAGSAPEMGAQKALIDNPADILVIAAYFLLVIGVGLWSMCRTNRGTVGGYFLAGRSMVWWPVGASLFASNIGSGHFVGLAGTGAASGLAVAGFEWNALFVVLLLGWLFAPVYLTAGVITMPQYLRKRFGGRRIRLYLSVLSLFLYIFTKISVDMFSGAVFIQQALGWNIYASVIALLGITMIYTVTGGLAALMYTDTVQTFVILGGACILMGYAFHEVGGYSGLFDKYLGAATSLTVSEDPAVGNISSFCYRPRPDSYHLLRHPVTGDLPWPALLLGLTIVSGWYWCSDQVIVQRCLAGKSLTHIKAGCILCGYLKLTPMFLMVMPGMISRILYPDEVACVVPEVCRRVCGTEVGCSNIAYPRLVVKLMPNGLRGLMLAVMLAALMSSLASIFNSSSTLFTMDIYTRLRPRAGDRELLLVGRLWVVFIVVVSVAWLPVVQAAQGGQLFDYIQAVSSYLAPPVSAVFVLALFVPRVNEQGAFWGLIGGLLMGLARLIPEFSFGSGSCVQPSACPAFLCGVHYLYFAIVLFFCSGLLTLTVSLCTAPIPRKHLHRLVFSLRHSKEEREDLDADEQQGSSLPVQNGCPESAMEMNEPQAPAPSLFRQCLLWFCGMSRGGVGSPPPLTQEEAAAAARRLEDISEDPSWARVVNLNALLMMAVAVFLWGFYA
Method in brief: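 Uptake of 14C-AMG (100 nCi) was followed in a stable HEK293 HA-SGLT2 line over 1-2 h at 37 °C with or without compound. Buffer: 140 mM NaCl, 10 mM HEPES, 5 mM Tris, 1 mg/mL BSA, pH 7.3. Readout was scintillation counting after washing.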

Compound	IC50 [1] [nM]	IC50 [2] [nM]	SGLT1 (human SGLT1 IC50) [1]
CS[C@H]1O[C@@H](c2ccc(C)c(Cc3ccc(CCCC(=O)NC(C)(C)C(=O)N4CCNCC4)cc3)c2)[C@H](O)[C@@H](O)[C@@H]1O [N-(2-methyl-1-oxo-1-(piperazin-1-yl)propan-2-yl)-4-(4-(2-methyl-5-((2S,3R,4R,5S,6R)-3,4,5-trihydroxy-6-(methylthio)tetrahydro-2H-pyran-2-yl)benzyl)phenyl)butanamide]	< 10	< 10	
CS[C@H]1O[C@@H](c2ccc(C)c(Cc3ccc(OCCCC(=O)NC(CO)(CO)CO)cc3)c2)[C@H](O)[C@@H](O)[C@@H]1O [N-(1,3-dihydroxy-2-(hydroxymethyl)propan-2-yl)-4-(4-(2-methyl-5-((2S,3R,4R,5S,6R)-3,4,5-trihydroxy-6-(methylthio)tetrahydro-2H-pyran-2-yl)benzyl)phenoxy)butanamide]	< 10	< 10	
CS[C@H]1O[C@@H](c2ccc(C)c(Cc3ccc(CCCCNCC(O)CO)cc3)c2)[C@H](O)[C@@H](O)[C@@H]1O (stereo partly drawn) [(2S,3R,4R,5S,6R)-2-(3-(4-(4-((2,3-dihydroxypropyl)amino)butyl)benzyl)-4-methylphenyl)-6-(methylthio)tetrahydro-2H-pyran-3,4,5-triol]	< 100	< 10	
CS[C@H]1O[C@@H](c2ccc(C)c(Cc3ccc(OCC(=O)O)cc3)c2)[C@H](O)[C@@H](O)[C@@H]1O [2-(4-(2-methyl-5-((2S,3R,4R,5S,6R)-3,4,5-trihydroxy-6-(methylthio)tetrahydro-2H-pyran-2-yl)benzyl)phenoxy)acetic acid]		< 100	—
CS[C@H]1O[C@@H](c2ccc(C)c(Cc3ccc(CCCC(=O)O)cc3)c2)[C@H](O)[C@@H](O)[C@@H]1O [4-(4-(2-methyl-5-((2S,3R,4R,5S,6R)-3,4,5-trihydroxy-6-(methylthio)tetrahydro-2H-pyran-2-yl)benzyl)phenyl)butanoic acid]	< 100	< 10	
CS[C@H]1OC(c2ccc(C)c(Cc3ccc(OCCCNC(CO)CO)cc3)c2)[C@H](O)[C@@H](O)[C@@H]1O (stereo partly drawn) [(3R,4R,5S,6R)-2-(3-(4-(3-((1,3-dihydroxypropan-2-yl)amino)propoxy)benzyl)-4-methylphenyl)-6-(methylthio)tetrahydro-2H-pyran-3,4,5-triol]	< 10	< 10	
CS[C@H]1O[C@@H](c2ccc(C)c(Cc3ccc(CCCCC(=O)NC(C)(C)C(=O)N4CCN(C)CC4)cc3)c2)[C@H](O)[C@@H](O)[C@@H]1O [N-(2-methyl-1-(4-methylpiperazin-1-yl)-1-oxopropan-2-yl)-5-(4-(2-methyl-5-((2S,3R,4R,5S,6R)-3,4,5-trihydroxy-6-(methylthio)tetrahydro-2H-pyran-2-yl)benzyl)phenyl)pentanamide]	< 10	< 10	
CS[C@H]1O[C@@H](c2ccc(Cl)c(Cc3ccc(OCCCC(=O)NC4CCCCC4N4CCOCC4)cc3)c2)[C@H](O)[C@@H](O)[C@@H]1O (stereo partly drawn) [4-(4-(2-chloro-5-((2S,3R,4R,5S,6R)-3,4,5-trihydroxy-6-(methylthio)tetrahydro-2H-pyran-2-yl)benzyl)phenoxy)-N-(2-morpholinocyclohexyl)butanamide]	< 100	< 10	
CS[C@H]1O[C@@H](c2ccc(C)c(Cc3ccc(CCCC(=O)NC(C)(C)C(=O)N4CCN(C)CC4)cc3)c2)[C@H](O)[C@@H](O)[C@@H]1O [N-(2-methyl-1-(4-methylpiperazin-1-yl)-1-oxopropan-2-yl)-4-(4-(2-methyl-5-((2S,3R,4R,5S,6R)-3,4,5-trihydroxy-6-(methylthio)tetrahydro-2H-pyran-2-yl)benzyl)phenyl)butanamide]	< 10	< 10	
CS[C@H]1O[C@@H](c2ccc(C)c(Cc3ccc(CCCc4nnn(CC(=O)N5CCN(C)CC5)n4)cc3)c2)[C@H](O)[C@@H](O)[C@@H]1O [2-(5-(3-(4-(2-methyl-5-((2S,3R,4R,5S,6R)-3,4,5-trihydroxy-6-(methylthio)tetrahydro-2H-pyran-2-yl)benzyl)phenyl)propyl)-2H-tetrazol-2-yl)-1-(4-methylpiperazin-1-yl)ethanone]	< 10	< 10	
CS[C@H]1O[C@@H](c2ccc(Cl)c(Cc3ccc(OCC[C@H](N)C(=O)O)cc3)c2)[C@H](O)[C@@H](O)[C@@H]1O [(S)-2-amino-4-(4-(2-chloro-5-((2S,3R,4R,5S,6R)-3,4,5-trihydroxy-6-(methylthio)tetrahydro-2H-pyran-2-yl)benzyl)phenoxy)butanoic acid]		< 100	—
CS[C@H]1O[C@@H](c2ccc(C)c(Cc3ccc(OCCCC(=O)NC4(C(N)=O)CCCC4)cc3)c2)[C@H](O)[C@@H](O)[C@@H]1O [1-(4-(4-(2-methyl-5-((2S,3R,4R,5S,6R)-3,4,5-trihydroxy-6-(methylthio)tetrahydro-2H-pyran-2-yl)benzyl)phenoxy)butanamido)cyclopentanecarboxamide]	< 10	< 10	
COCCOCCOc1ccc(Cc2cc([C@@H]3O[C@H](SC)[C@@H](O)[C@H](O)[C@H]3O)ccc2Cl)cc1 [(2S,3R,4R,5S,6R)-2-(4-chloro-3-(4-(2-(2-methoxyethoxy)ethoxy)benzyl)phenyl)-6-(methylthio)tetrahydro-2H-pyran-3,4,5-triol]	< 100	< 10	
CS[C@H]1O[C@@H](c2ccc(C)c(Cc3ccc(CCCC(=O)NCC(C)(C)N)cc3)c2)[C@H](O)[C@@H](O)[C@@H]1O [N-(2-amino-2-methylpropyl)-4-(4-(2-methyl-5-((2S,3R,4R,5S,6R)-3,4,5-trihydroxy-6-(methylthio)tetrahydro-2H-pyran-2-yl)benzyl)phenyl)butanamide]	< 10	< 10	
CS[C@H]1O[C@@H](c2ccc(C)c(Cc3ccc(CCCCNC4(C(N)=O)CCCC4)cc3)c2)[C@H](O)[C@@H](O)[C@@H]1O [1-((4-(4-(2-methyl-5-((2S,3R,4R,5S,6R)-3,4,5-trihydroxy-6-(methylthio)tetrahydro-2H-pyran-2-yl)benzyl)phenyl)butyl)amino)cyclopentanecarboxamide]	< 100	< 10	
CS[C@H]1O[C@@H](c2ccc(C)c(Cc3ccc(CCCCCCC(=O)NC(C)(C)CO)cc3)c2)[C@H](O)[C@@H](O)[C@@H]1O [N-(1-hydroxy-2-methylpropan-2-yl)-7-(4-(2-methyl-5-((2S,3R,4R,5S,6R)-3,4,5-trihydroxy-6-(methylthio)tetrahydro-2H-pyran-2-yl)benzyl)phenyl)heptanamide]	< 100	< 10	
CS[C@H]1O[C@@H](c2ccc(C)c(Cc3ccc(CCCC(=O)NCC(C)(C)C(=O)O)cc3)c2)[C@H](O)[C@@H](O)[C@@H]1O [2,2-dimethyl-3-(4-(4-(2-methyl-5-((2S,3R,4R,5S,6R)-3,4,5-trihydroxy-6-(methylthio)tetrahydro-2H-pyran-2-yl)benzyl)phenyl)butanamido)propanoic acid]	< 100	< 10	
CS[C@H]1O[C@@H](c2ccc(C)c(Cc3ccc(OCCCC(=O)NC(C)(C)C(=O)N(C)CCN(C)C)cc3)c2)[C@H](O)[C@@H](O)[C@@H]1O [N-(1-((2-(dimethylamino)ethyl)(methyl)amino)-2-methyl-1-oxopropan-2-yl)-4-(4-(2-methyl-5-((2S,3R,4R,5S,6R)-3,4,5-trihydroxy-6-(methylthio)tetrahydro-2H-pyran-2-yl)benzyl)phenoxy)butanamide]	< 100	< 10	
CS[C@H]1O[C@@H](c2ccc(C)c(Cc3ccc(CCCC(=O)NC(C)(C)C(N)=O)cc3)c2)[C@H](O)[C@@H](O)[C@@H]1O [N-(1-amino-2-methyl-1-oxopropan-2-yl)-4-(4-(2-methyl-5-((2S,3R,4R,5S,6R)-3,4,5-trihydroxy-6-(methylthio)tetrahydro-2H-pyran-2-yl)benzyl)phenyl)butanamide]	< 10	< 10	
CS[C@H]1O[C@@H](c2ccc(C)c(Cc3ccc(CCCC(=O)NC(C)(C)C(=O)N4CCN(CCO)CC4)cc3)c2)[C@H](O)[C@@H](O)[C@@H]1O [N-(1-(4-(2-hydroxyethyl)piperazin-1-yl)-2-methyl-1-oxopropan-2-yl)-4-(4-(2-methyl-5-((2S,3R,4R,5S,6R)-3,4,5-trihydroxy-6-(methylthio)tetrahydro-2H-pyran-2-yl)benzyl)phenyl)butanamide]	< 10	< 10	
CS[C@H]1O[C@@H](c2ccc(C)c(Cc3ccc(CCCCCNC(=O)NC(C)(C)CO)cc3)c2)[C@H](O)[C@@H](O)[C@@H]1O [1-(1-hydroxy-2-methylpropan-2-yl)-3-(5-(4-(2-methyl-5-((2S,3R,4R,5S,6R)-3,4,5-trihydroxy-6-(methylthio)tetrahydro-2H-pyran-2-yl)benzyl)phenyl)pentyl)urea]	< 100	< 10	
CS[C@H]1O[C@@H](c2ccc(Cl)c(Cc3ccc(OCCNC(=N)N)cc3)c2)[C@H](O)[C@@H](O)[C@@H]1O [1-(2-(4-(2-chloro-5-((2S,3R,4R,5S,6R)-3,4,5-trihydroxy-6-(methylthio)tetrahydro-2H-pyran-2-yl)benzyl)phenoxy)ethyl)guanidine]	< 10	< 10	
